The values that follow come from patent publication US20150051227A1, “PREDICTIVE BIOMARKER USEFUL FOR CANCER THERAPY MEDIATED BY A CDK INHIBITOR” (Merck Sharp & Dohme Corp., priority 2012, published 2015).

In experiment [1] the test system is 23 lung, breast, ovarian, colorectal, and prostate cell lines. Briefly: 18 hour viability assay (ATP quantitation). The class given is cell-based. The following applies: Homo sapiens, 100 nM, range over 23 cell lines, read-out: cell viability relative to DMSO-negative control.
Experiment [2] relates to solid tumor xenograft panel. Briefly: Xenograft pharmacodynamic analysis (immunoblot of tumor lysates). The experiment is classed as in vivo, mice. The following applies: 40 mg/kg, 6 hours post-dosing, high MCL-1:BCL-xL ratio tumors. Background: Immunoblotting shows a protein as a band on a membrane.
Protocol: Each tumor was divided into three parts. Two parts were snap frozen in liquid nitrogen and stored at −80° C. The third part was preserved in 10% neutral buffered formalin for 24 hours then stored in 70% ethanol at ambient temperature. Whole cell lysates from one snap frozen part were prepared by disruption/homogenation at 4° C. in a 2 ml conical-end microfuge tube containing two stainless steel beads ( 5/32″, grade 25, Ball Supply Corp) and 0.4 ml lysis buffer [1% Triton X-100, 30 mM Tris pH 7.4, 1 mM EDTA and protease (complete, mini, EDTA-free, Roche) and phosphatase (PhosSTOP, Roche) cocktail inhibitors] using a Qiagen Lyser II, shaking at 30 Hz for 2 minutes. 200 μl of pre-chilled 3×RIPA (Cell Signaling Technology) containing protease and phosphatase cocktail inhibitors was added to the homogenate, rotated at 4° C. for 10 minutes, and microcentrifuged at 12 kpm for 10 minutes at 4° C. The supernatant was removed, normalized for protein content using a BCA kit (Pierce, Rockford, Ill.) and stored at −80° C. For Western blots, 5 μg of lysate were subjected to SDS-PAGE except for cleaved PARP analysis, which required loading of 0.5 μg of lysate.

Consider `CCc1cnn2c(NCc3ccc[n+]([O-])c3)cc(N3CCCC[C@H]3CCO)nc12` [SCH 727965 (Dinaciclib)], for which, in experiment [1], the viability at 0.1 µM was 23 to 102%. Moreover, the “apoptosis (cleaved PARP) in tumors” value in experiment [2] is on record as “induced apoptosis”.

As usually defined, the viability is a read-out of living cells in per cent, often relative to untreated cells.
